In brackets after ≈: the same amount, converted by molar mass. Like-named read-outs stand apart in the source and are kept apart here. *1 amine or outer side, *2 acyl side, *3 side chain or, on linkers, in order; H or OH if unused. Where a SMILES comes first, the peptide text is derived from it. Bridges are numbered along the chain shown (N, C = ends). [ ]: non-standard residue; d: D form. The star is where a group is joined. ξ: configuration not given here. Phe(3,5-F2) = N[C@@H](Cc1cc(F)cc(F)c1)C(=O)O; Pro(4R-Me) = C[C@H]1CN[C@H](C(=O)O)C1; NMeaThr = CN[C@H](C(=O)O)[C@H](C)O; Hyp = O=C(O)[C@@H]1C[C@@H](O)CN1; Heptenoyl(2E) = CCCC/C=C/C(=O)*; NH(4-Me-phenyl) = Cc1ccc(N*)cc1; ξNMeThr = CNC(C(=O)O)[C@@H](C)O; aThr = C[C@H](O)[C@H](N)C(=O)O; Pip = O=C(O)[C@@H]1CCCCN1; X4 = c1cc2c(cc1N*)CCC2; X8 = c1cc2c(cc1N*)CCO2; X6 = Cc1cc(C)cc(N*)c1; CO = O=C([*:1])[*:2]; X7 = CC/C=C/C(=O)*
Columns and labels:
Sa-ClpP = target: T1, Sa-ClpP (Staphylococcus aureus, UniProt Q2G036); test: ADEP displacement fluorescence polarization assay (FP probe ADEP 2591); type: binding
T1 construct: made in house; host or cells: E. coli BL21(DE3)
T1 sequence (Q2G036 1-195): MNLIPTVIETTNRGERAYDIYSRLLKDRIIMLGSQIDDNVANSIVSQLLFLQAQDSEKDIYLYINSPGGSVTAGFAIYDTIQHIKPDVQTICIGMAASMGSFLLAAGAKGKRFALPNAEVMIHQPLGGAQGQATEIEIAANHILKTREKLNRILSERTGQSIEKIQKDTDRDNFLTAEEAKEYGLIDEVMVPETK
Procedure: A fluorescence polarization (FP) assay was used to determine the activity of the disclosed compounds in displacing an ADEP analogue from ClpP. Briefly, the assay was performed in black 384 well, flat bottom, low volume plates (Greiner Bio-One, Monroe, N.C., catalog #784076). 20 μL of a pre-equilibrated (1 hr, room temperature) master mix (15 μM Sa-ClpP, 2% DMSO (v/v) and 50 nM FP probe in Tris*HCl, pH 8.0)) was pipetted into each well using a Well-Mate (Thermo Scientific, Waltham, Mass.). Sa-ClpP was prepared as described above for the ClpP activation assay. The FP probe was ADEP 2591 (structure shown above). The ADEP 2591 comprises a TAMRA fluorophore linked to a core based on modified ADEP 2378 via a short alkyl linker. Using pin transfer, approximately 0.4 μL (2% v/v DMSO) of each compound or control was added per well. After addition of compounds and controls, plates were allowed to incubate for an additional 120 minutes at room temperature. All assays were performed in triplicate. Polarization was monitored using an EnVision Multilabel reader (Perkin-Elmer, Waltham, Mass.) by exciting the FP probe at 530±25 nm, and monitoring fluorescence intensity of both parallel and perpendicular polarized light at 579±25 nm. Readout was in millipolarization units (mP).
Data collected was normalized to values obtained from positive (200 μM ADEP 2378) or negative (DMSO) controls. Curves were fit with non-linear regression using the equation “log [inhibitor] vs. Response-variable slope (four parameters)-symmetrical” in the program Prism 6 (GraphPad Software, La Jolla, Calif. USA, www.graphpad.com). The structures for ADEP 2378 and ADEP 2591 are shown above. ADEP 2378 is (E)-N—((S)-1-(((2R,6S,8aS,14aS,20S,23aS)-2,6-dimethyl-5,8,14,19,23-pentaoxooctadecahydro-1H,5H,14H,19H-pyrido[2,1-i]dipyrrolo[2,1-c:2′,1′-1][1]oxa[4,7,10,13]tetraazacyclohexadecin-20-yl)amino)-1-oxo-3-phenylpropan-2-yl)pent-2-enamide. ADEP 2591 is 5-(3-(3-((6S,9S,11aS,17S,20aS)-6,10-dimethyl-5,8,11,16,20-pentaoxo-17-((S)-2-((E)-pent-2-enamido)-3-phenylpropanamido)hexadecahydro-1H,5H,16H-dipyrrolo[2,1-c:2′,1′-1][1]oxa[4,7,10,13]tetraazacyclohexadecin-9-yl)propyl)thioureido)-2-(6-(dimethylamino)-3-(dimethyliminio)-3H-xanthen-9-yl)benzoate.

[1] = system: Bacillus subtilis, ATCC 23857; test: Minimal inhibitory concentration assay (microbroth dilution); type: cell-based
Method in brief: (§1)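 Paired MICs against USA 300 and its ClpP-inactivated counterpart test whether killing runs through ClpP. All strains: two-fold broth dilutions from 200 μM final, ~10^5 cfu/mL inoculum, overnight at 37 °C in air, lowest growth-free concentration read by eye.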

[2] = system: Staphylococcus aureus, NRS70; test: as above; type: cell-based
Method in brief: as §1

[3] = system: Staphylococcus aureus, ATCC 29213; test: as above; type: cell-based; settings: ATCC29213, read-out: Minimal Inhibitory Concentrations S. aureus ATCC 29213
Method in brief: as §1

[4] = system: Streptococcus pyogenes, ATCC 700294; test: as above; type: cell-based
Method in brief: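 Plates with two-fold compound dilution series in broth were incubated overnight, aerobically, at 37° C, following CLSI microdilution guidance.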

[5] = Staphylococcus aureus, NRS70; read-out: Minimal Inhibitory Concentrations S. aureus NRS70
[6] = Staphylococcus aureus, NRS70, read-out: Minimal Inhibitory Concentrations S. aureus NRS70
[7] = Bacillus subtilis, ATCC23857, read-out: Minimal Inhibitory Concentrations B. subtilis ATCC 23857
[8] = Streptococcus pyogenes, ATCC700294, read-out: Minimal Inhibitory Concentrations S. pyogenes ATCC 700294
[9] = displacement of FP probe ADEP 2591 from Sa-ClpP, read-out: ADEP Displacement IC50

Row | SMILES | IC50 (Sa-ClpP) [µM] | MIC ([1]; Bacillus subtilis, ATCC23857; read-out: Minimal Inhibitory Concentrations B. subtilis ATCC 23857) [µM] | MIC [2, 5] [µM] | MIC [3] [µM] | MIC ([4]; Streptococcus pyogenes, ATCC700294; read-out: Minimal Inhibitory Concentrations S. pyogenes ATCC 700294) [µM] | MIC [2, 6] [µM] | MIC [1, 7] [µM] | MIC [4, 8] [µM] | IC50 (Sa-ClpP; [9]) [µM]
1 | C[C@@H]1C[C@H]2C(=O)OC[C@H](NC(=O)[C@H](Cc3cc(F)cc(F)c3)NC(=O)Nc3ccc4c(c3)OCO4)C(=O)N3C[C@H](O)C[C@H]3C(=O)N3CCCCC3C(=O)N[C@@H](C)C(=O)N2C1 (stereo partly drawn) [Compound 325, (S)-2-(3-(benzo[d][1,3]dioxol-5-yl)ureido)-3-(3,5-difluorophenyl)-N-((2R,6S,8aR,14aS,16R,20S,23aS)-16-hydroxy-2,6-dimethyl-5,8,14,19,23-pentaoxooctadecahydro-1H,5H,14H,19H-pyrido[2,1-i]dipyrrolo[2,1-c:2′,1′-l][1]oxa[4,7,10,13]tetraazacyclo-hexadecin-20-yl)propanamide] | 4.27 ± 0.2 | 2.5 (≈ 2.1 µg/mL) | 1.25 (≈ 1.05 µg/mL) | 1.25 (≈ 1.05 µg/mL) | 0.156 (≈ 0.131 µg/mL) | – | – | – | –
2 | CCCC/C=C/C(=O)N[C@@H](Cc1cc(F)cc(F)c1)C(=O)N[C@@H]1C(=O)N2C[C@H](O)C[C@H]2C(=O)N2CCCC[C@H]2C(=O)N[C@@H](C)C(=O)N2C[C@H](C)C[C@H]2C(=O)O[C@H]1C [Compound 301, (E)-N—((S)-3-(3,5-difluorophenyl)-1-(((2R,6S,8aS,14aS,16R,20S,21S,23aS)-16-hydroxy-2,6,21-trimethyl-5,8,14,19,23-pentaoxooctadecahydro-1H,5H,14H,19H-pyrido[2,1-i]dipyrrolo[2,1-c:2′,1′-l][1]oxa[4,7,10,13]tetraazacyclohexadecin-20-yl)amino)-1-oxopropan-2-yl)hept-2-enamide] ({Heptenoyl(2E)}-[Phe(3,5-F2)][aThr][Hyp][Pip]A[Pro(4R-Me)]; ester 2-C) | 7.07 ± 0.3 | – | – | 0.079 (≈ 0.0633 µg/mL) | – | 0.079 (≈ 0.0633 µg/mL) | – | – | –
3 | C[C@@H]1C[C@H]2C(=O)O[C@@H](C)[C@H](NC(=O)[C@H](Cc3cc(F)cc(F)c3)NC(=O)Nc3ccc4c(c3)CCC4)C(=O)N3CCC[C@H]3C(=O)N3CCCC[C@H]3C(=O)N[C@@H](C)C(=O)N2C1 [Compound 302, (S)-3-(3,5-difluorophenyl)-2-(3-(2,3-dihydro-1H-INDEN-5-yl)ureido)-N-((2R,6S,8aS,14aS,20S,21S,23aS)-2,6,21-trimethyl-5,8,14,19,23-pentaoxooctadecahydro-1H,5H,14H,19H-pyrido[2,1-i]dipyrrolo[2,1-c:2′,1′-l][1]oxa[4,7,10,13]tetraazacyclohexadecin-20-yl)propanamide] ({X4-CO}-[Phe(3,5-F2)][aThr]P[Pip]A[Pro(4R-Me)]; ester 2-C) | 9.64 ± 0.6 | – | – | 0.059 (≈ 0.0492 µg/mL) | – | 0.039 (≈ 0.0325 µg/mL) | – | – | –
4 | Cc1ccc(NC(=O)N[C@@H](Cc2cc(F)cc(F)c2)C(=O)N[C@H]2COC(=O)[C@@H]3C[C@@H](C)CN3C(=O)[C@H](C)NC(=O)C([C@@H](C)O)N(C)C(=O)[C@@H]3CCCN3C2=O)cc1 (stereo partly drawn) [Compound 322, (S)-3-(3,5-difluorophenyl)-N-((2R,6S,9R,11aS,17S,20aS)-9-((R)-1-hydroxyethyl)-2,6,10-trimethyl-5,8,11,16,20-pentaoxohexadecahydro-1H,5H,16H-dipyrrolo[2,1-c:2′,1′-l][1]oxa[4,7,10,13]tetraazacyclohexadecin-17-yl)-2-(3-(p-tolyl)ureido)propanamide] ({NH(4-Me-phenyl)-CO}-[Phe(3,5-F2)]SP[ξNMeThr]A[Pro(4R-Me)]; ester 2-C) | 8.54 ± 0.4 | – | – | – | – | 0.313 (≈ 0.25 µg/mL) | 0.078 (≈ 0.0622 µg/mL) | 0.625 (≈ 0.499 µg/mL) | –
5 | Cc1ccc(NC(=O)N[C@@H](Cc2cc(F)cc(F)c2)C(=O)N[C@@H]2C(=O)N3CCC[C@H]3C(=O)N(C)[C@@H]([C@H](C)O)C(=O)N[C@@H](C)C(=O)N3C[C@H](C)C[C@H]3C(=O)O[C@H]2C)cc1 [Compound 208, (S)-3-(3,5-difluorophenyl)-N-((2R,6S,9S,11aS,17S,18S,20aS)-9-((S)-1-hydroxyethyl)-2,6,10,18-tetramethyl-5,8,11,16,20-pentaoxohexadecahydro-1H,5H,16H-dipyrrolo[2,1-c:2′,1′-l][1]oxa[4,7,10,13]tetraazacyclohexadecin-17-yl)-2-(3-(p-tolyl)ureido)propanamide] ({NH(4-Me-phenyl)-CO}-[Phe(3,5-F2)][aThr]P[NMeaThr]A[Pro(4R-Me)]; ester 2-C) | – | – | – | 0.05 (≈ 0.0406 µg/mL) | – | – | 0.05 (≈ 0.0406 µg/mL) | 0.1 (≈ 0.0812 µg/mL) | 6.52 ± 0.3
6 | CC/C=C/C(=O)N[C@@H](Cc1cc(F)cc(F)c1)C(=O)N[C@@H]1C(=O)N2C[C@H](O)C[C@H]2C(=O)N2CCCC[C@H]2C(=O)N[C@@H](C)C(=O)N2C[C@H](C)C[C@H]2C(=O)O[C@H]1C [Compound 300] (X7-[Phe(3,5-F2)][aThr][Hyp][Pip]A[Pro(4R-Me)]; ester 2-C) | 5.94 ± 0.3 | – | – | 1.9 (≈ 1.47 µg/mL) | – | 2.5 (≈ 1.93 µg/mL) | – | – | –
7 | Cc1cc(C)cc(NC(=O)N[C@@H](Cc2cc(F)cc(F)c2)C(=O)N[C@@H]2C(=O)N3CCC[C@H]3C(=O)N3CCCC[C@H]3C(=O)N[C@@H](C)C(=O)N3C[C@H](C)C[C@H]3C(=O)O[C@H]2C)c1 [Compound 304, (S)-3-(3,5-difluorophenyl)-2-(3-(3,5-dimethylphenyl)ureido)-N-((2R,6S,8aS,14aS,20S,21S,23aS)-2,6,21-trimethyl-5,8,14,19,23-pentaoxooctadecahydro-1H,5H,14H,19H-pyrido[2,1-i]dipyrrolo[2,1-c:2′,1′-l][1]oxa[4,7,10,13]tetraazacyclo-hexadecin-20-yl)propanamide] ({X6-CO}-[Phe(3,5-F2)][aThr]P[Pip]A[Pro(4R-Me)]; ester 2-C) | 6.52 ± 0.3 | – | 0.059 (≈ 0.0485 µg/mL) | 0.079 (≈ 0.0649 µg/mL) | – | – | – | – | –
8 | C[C@@H]1C[C@H]2C(=O)O[C@@H](C)[C@H](NC(=O)[C@H](Cc3cc(F)cc(F)c3)NC(=O)Nc3ccc4c(c3)CCO4)C(=O)N3CCC[C@H]3C(=O)N3CCCC[C@H]3C(=O)N[C@@H](C)C(=O)N2C1 [Compound 305, (S)-3-(3,5-difluorophenyl)-2-(3-(2,3-dihydrobenzofuran-5-yl)ureido)-N-((2R,6S,8aS,14aS,20S,21S,23aS)-2,6,21-trimethyl-5,8,14,19,23-pentaoxooctadecahydro-1H,5H,14H,19H-pyrido[2,1-i]dipyrrolo[2,1-c:2′,1′-l][1]oxa[4,7,10,13]tetraazacyclo-hexadecin-20-yl)propanamide] ({X8-CO}-[Phe(3,5-F2)][aThr]P[Pip]A[Pro(4R-Me)]; ester 2-C) | 7.65 ± 0.5 | – | – | 0.24 (≈ 0.201 µg/mL) | – | 0.24 (≈ 0.201 µg/mL) | – | – | –
9 | Cc1ccc(NC(=O)N[C@@H](Cc2cc(F)cc(F)c2)C(=O)N[C@@H]2C(=O)N3CCC[C@H]3C(=O)N3CCCC[C@H]3C(=O)N[C@@H](C)C(=O)N3C[C@H](C)C[C@H]3C(=O)O[C@H]2C)cc1 [Compound 209, (S)-3-(3,5-difluorophenyl)-2-(3-(p-tolyl)ureido)-N-((2R,6S,8aS,14aS,20S,21S,23aS)-2,6,21-trimethyl-5,8,14,19,23-pentaoxooctadecahydro-1H,5H,14H,19H-pyrido[2,1-i]dipyrrolo[2,1-c:2′,1′-l][1]oxa[4,7,10,13]tetraazacyclohexadecin-20-yl)propanamide] ({NH(4-Me-phenyl)-CO}-[Phe(3,5-F2)][aThr]P[Pip]A[Pro(4R-Me)]; ester 2-C) | – | – | – | 0.05 (≈ 0.0404 µg/mL) | – | – | 0.05 (≈ 0.0404 µg/mL) | 0.2 (≈ 0.162 µg/mL) | 9 ± 0.4
